The values below come from patent US20240131044A1, “METHOD FOR TREATING CANCER” (M.T.3, Inc., priority 2022, published 2024).

The subject of experiment [1] is V79 cells. The experiment in a line: Colony formation, survival fraction of V79 cells. Type of experiment: cell-based, Chinese hamsters. The settings on record: SQAP not administered. The procedure: (§1) An anti-cancer agent and a pharmaceutical composition were administered to test cells and then the cells were cultured. Then, after colonies were formed, the number of colonies was counted. Here, samples in which the concentration of the anti-cancer agent to be administered was varied were prepared, and in each sample, the survival fraction of the cells compared with the case where cells were cultured without administration of the pharmaceutical composition was measured. Regarding the type of anti-cancer agent to be administered, a predetermined anti-cancer agent was selected depending on the type of administration target cells. Note that cells that were cultured without administration of the pharmaceutical composition and the anti-cancer agent were used as a control. Hereinafter, these steps will be described.
(§2) Here, CHO cells, V79 cells, and canine-derived cancer cells were prepared as the test cells. The CHO cells are ovarian cells derived from Chinese hamsters, and the V79 cells are fibroblasts derived from the lungs of Chinese hamsters. Melanoma developing cells (CML6M) and soft tissue sarcoma developing cells (STSA-1) were used as the cancer cells.
(§3) The cancer cells were prepared by being cultured using an αMEM culture medium supplemented with 10% serum and an antibiotic. The cancer cells were prepared such that, when the concentration of the cells in a cell suspension obtained by subjecting the cultured cells to PBS washing and trypsin treatment, the concentration was within a predetermined concentration range. Here, the predetermined concentration ranges were 300 cells/well, 100 to 150 cells/well, and 500 to 1000 cells/well for the CHO/V79 cells, the melanoma cells, and the soft tissue sarcoma cells, respectively.
(§4) Next, the cancer cells were cultured in culture environments to which the anti-cancer agent was added at various concentrations, and were then allowed to form colonies. The culture periods for colony formation were a week, 10 days, and 14 days for CHO and V79, melanoma, and soft tissue sarcoma, respectively. After colonies were formed, washing using a physiological saline solution, fixation using 100% ethanol, and staining using 0.1% crystal violet were performed, and then the number of colonies per well was counted under a microscope. Note that, here, the colony was defined as containing 50 or more cells. […]
A graph with the horizontal axis representing the concentration of the anti-cancer agent and the vertical axis representing the survival fraction was created by plotting the survival fraction measurement results relative to the SQAP administration amounts, and the effect of the addition of SQAP on the survival fraction was examined. Hereinafter, the results from each anti-cancer agent will be shown in a table and described. […]
V79 cells were used as the cells, and cisplatin was used as the anti-cancer agent. The cisplatin was administered at concentrations of 0 μg/mL, 0.1 μg/mL, 0.2 μg/mL, 0.3 μg/mL, 0.4 μg/mL, and 0.5 μg/mL.
V79 cells were used as the cells, and camptothecin was used as the anti-cancer agent. The amount of the camptothecin was set to 0 nM, 5 nM, 10 nM, 15 nM, and 20 nM.
V79 cells were used as the cells, and mitomycin C was used as the anti-cancer agent. The amount of MMC was set to 0 nM, 100 nM, 200 nM, 300 nM, 400 nM, and 500 nM. […]
V79 cells were used as the cells, and taxol was used as the anti-cancer agent. The amount of the taxol was set to 0 nM, 10 nM, 20 nM, and 30 nM.
V79 cells were used as the cells, and MMS was used as the anti-cancer agent. The amount of the MMS was set to 0 μM, 10 μM, 20 μM, 30 μM, and 40 μM.
(§5) In the above examples, the anti-cancer agent and the pharmaceutical composition were administered to the test cells and then the cells were cultured. […]

Experiment [2] deals with angiogenesis. The settings on record: in combination with radiation; cited from earlier work.
The subject of experiment [3] is Melanoma developing cells (CML6M). The experiment in a line: Colony formation, survival fraction of canine melanoma cells. Format: cell-based. Particulars: melanoma cells; doxorubicin 15 nM, SQAP not administered. The protocol: as §1, §2, §3
(§6) Next, the cancer cells were cultured in culture environments to which the anti-cancer agent was added at various concentrations, and were then allowed to form colonies. The culture periods for colony formation were a week, 10 days, and 14 days for CHO and V79, melanoma, and soft tissue sarcoma, respectively. After colonies were formed, washing using a physiological saline solution, fixation using 100% ethanol, and staining using 0.1% crystal violet were performed, and then the number of colonies per well was counted under a microscope. Note that, here, the colony was defined as containing 50 or more cells. Moreover, mitomycin C, doxorubicin, bleomycin, camptothecin, etoposide, taxol, methyl methanesulfonate, and cisplatin were used as the anti-cancer agent.
(§7) A graph with the horizontal axis representing the concentration of the anti-cancer agent and the vertical axis representing the survival fraction was created by plotting the survival fraction measurement results relative to the SQAP administration amounts, and the effect of the addition of SQAP on the survival fraction was examined. Hereinafter, the results from each anti-cancer agent will be shown in a table and described.
Canine-derived melanoma cells and soft tissue sarcoma cells were used as the cells, and doxorubicin was used as the anti-cancer agent. […] Also, the concentration of the doxorubicin administered to the soft tissue sarcoma cells was set to 0 nM, 5 nM, 10 nM, and 15 nM. […] In Table 2, survival fractions in the case where SQAP was not administered are shown with a solid line, survival fractions in the case where SQAP was administered at a concentration of 10 μM are shown with a broken line, survival fractions in the case where SQAP was administered at a concentration of 20 μM are shown with a 1-dot chain line, and survival fractions in the case where SQAP was administered at a concentration of 30 μM are shown with a 2-dot chain line.
as §5

Experiment [4] has as its system soft tissue sarcoma developing cells (STSA-1). The experiment in a line: Colony formation, survival fraction of canine soft tissue sarcoma cells. Type of experiment: cell-based. The settings on record: soft tissue sarcoma cells; doxorubicin 10 nM, SQAP not administered. The protocol: as §1, §2, §3, §6, §7
Canine-derived melanoma cells and soft tissue sarcoma cells were used as the cells, and doxorubicin was used as the anti-cancer agent. The amount of the doxorubicin administered to the melanoma cell was set to 0 nM, 5 nM, 10 nM, 15 nM, 20 nM, and 25 nM. […] In Table 2, survival fractions in the case where SQAP was not administered are shown with a solid line, survival fractions in the case where SQAP was administered at a concentration of 10 μM are shown with a broken line, survival fractions in the case where SQAP was administered at a concentration of 20 μM are shown with a 1-dot chain line, and survival fractions in the case where SQAP was administered at a concentration of 30 μM are shown with a 2-dot chain line.
as §5

The subject of experiment [5] is human esophageal squamous cell carcinoma. The settings on record: in combination with radiation; mouse with transplanted human esophageal squamous cell carcinoma; cited from earlier work.
The test system of experiment [6] is human colon adenocarcinoma. The settings on record: in combination with radiation; mouse with transplanted human colon adenocarcinoma; cited from earlier work.
Experiment [7] concerns CHO cells. The experiment in a line: Colony formation, survival fraction of CHO cells. Format: cell-based, Chinese hamsters. The settings on record: mitomycin C 500 nM, SQAP not administered. The protocol: as §1, §2, §3, §4
In the above examples, the anti-cancer agent and the pharmaceutical composition were administered to the test cells and then the cells were cultured. In this example, test cells were cultured after administering pharmaceutical composition (SQAP) alone without administering the anti-cancer agent to the test cells, and then the number of colonies was counted after colonies were formed. […]

`COc1cc([C@@H]2c3cc4c(cc3[C@@H](O[C@@H]3O[C@@H]5CO[C@@H](C)O[C@H]5[C@H](O)[C@H]3O)[C@H]3COC(=O)[C@H]23)OCO4)cc(OC)c1O` [etoposide, reference compound]: the survival fraction entry in experiment [1] (etoposide 30 nM) is “about 30%”. With `CCCCCCCCCC(=O)OCCCO[C@H]1O[C@H](CS(=O)(=O)[O-])[C@@H](O)[C@H](O)[C@H]1O.[Na+]` [αSQAP C10:0], in experiment [2], the “angiogenesis in an in-vitro test” value is on record as “inhibited”. As to `CC(=O)O[C@H]1C(=O)[C@@]2(C)[C@H]([C@H](OC(=O)c3ccccc3)[C@]3(O)C[C@H](OC(=O)[C@H](O)[C@@H](NC(=O)c4ccccc4)c4ccccc4)C(C)=C1C3(C)C)[C@]1(OC(C)=O)CO[C@@H]1C[C@@H]2O` [taxol, reference compound], the survival fraction entry in experiment [1] (taxol 30 nM) is “about 5%”. With `COc1cccc2c1C(=O)c1c(O)c3c(c(O)c1C2=O)C[C@@](O)(C(=O)CO)C[C@@H]3O[C@H]1C[C@H](N)[C@H](O)[C@H](C)O1` [doxorubicin, reference compound], the survival fraction entry in experiment [3] was “about 20%”; in experiment [4], “about 6%”. Consider `CCCCCCCCCCCCCC(=O)OCCCO[C@H]1O[C@H](CS(=O)(=O)[O-])[C@@H](O)[C@H](O)[C@H]1O.[Na+]` [αSQAP C14:0], for which the “angiogenesis in an in-vitro test” value in experiment [2] is “inhibited”. For `CC[C@@]1(O)C(=O)OCc2c1cc1n(c2=O)Cc2cc3ccccc3nc2-1` [camptothecin, reference compound], the survival fraction entry in experiment [1] (camptothecin 20 nM) was “about 15%”. Turning to `CCCCCCCCCCCCCCCCCC(=O)OCCCO[C@H]1O[C@H](CS(=O)(=O)[O-])[C@@H](O)[C@H](O)[C@H]1O.[Na+]` [αSQAP C18:0], the “angiogenesis in an in-vitro test” value in experiment [2] is “inhibited”. Moreover, the “increase in a tumor volume” value in experiment [5] and in experiment [6] was “suppressed” in each case. As to bleomycin [reference compound], the survival fraction result in experiment [1] (bleomycin 15 nM) was “about 40%”. In the case of `COS(C)(=O)=O` [MMS, methyl methanesulfonate, reference compound], in experiment [1] (MMS 40 μM), the survival fraction entry is given as “about 40%”. `CCCCCCCCCCCCCCCCCC(=O)OCCCO[C@@H]1O[C@H](CS(=O)(=O)[O-])[C@@H](O)[C@H](O)[C@H]1O.[Na+]` [βSQAP C18:0]: in experiment [2], the “angiogenesis in an in-vitro test” value was “inhibited”. For the compound `CCCCCCCCCCCCCCCCCCCCCC(=O)OCCCO[C@H]1O[C@H](CS(=O)(=O)[O-])[C@@H](O)[C@H](O)[C@H]1O.[Na+]` [αSQAP C22:0], the “angiogenesis in an in-vitro test” value in experiment [2] was “inhibited”. Turning to `CO[C@@]12[C@H](COC(N)=O)C3=C(C(=O)C(C)=C(N)C3=O)N1C[C@@H]1N[C@@H]12` [mitomycin C, reference compound], the survival fraction result is “about 40%” in experiment [7] and “about 50%” in experiment [1] (mitomycin C 500 nM).

Regarding `N.N.[Cl][Pt][Cl]` [cisplatin, reference compound], in experiment [1] (cisplatin 0.3 μg/mL), the survival fraction result is listed as “about 40%”.
